Tests used:
Format in all cases: biochemical
Conditions in all cases: Enzymatic Data
[1] = target: T1, PI3K alfa (Homo sapiens, UniProt P42336); assay: PI3K alfa enzymatic assay (Kinase-Glo luminescence)
T1 construct: p85(iSH2) fusion partner (same polypeptide; see partner chain) (N); 12x Gly linker (N); His tag (C); made in house; host or cells: baculovirus; Tn5 (Trichoplusia ni) or TiniPro insect cells
Experimental: (§1) In a more preferred assay, the kinase reaction is performed in a final volume of 10 μL per well of a low volume non binding CORNING, 384 well black plate (Cat. No. #3676). The final concentrations of ATP and phosphatidyl inositol (PI) in the assay are 1 μM and 10 μg/mL respectively. The reaction is started by the addition of ATP.
(§2) The components of the assay are added per well as follows:
(§3) 50 nL test compounds in 90% DMSO per well, in columns 1-20, 8 concentrations (⅓ and 1/3.33 serial dilution step) in single. • Low control: 50 nL of 90% DMSO in half the wells of columns 23-24 (0.45% in final). • High control: 50 nL of reference compound (e.g. compound of Example 7 in WO 2006/122806, incorporated by reference herein that regard) in the other half of columns 23-24 (2.5 μM in final). • Standard: 50 nL of reference compound as just mentioned diluted as the test compounds in columns 21-22 • 20 mL ‘buffer’ are prepared per assay: • 200 μL of 1M TRIS HCl pH7.5 (10 mM in final) • 60 μL of 1M MgCl2 (3 mM in final) • 500 μL of 2M NaCl (50 mM in final) • 100 μL of 10% CHAPS (0.05% in final) • 200 μL of 100 mM DTT (1 mM in final) • 18.94 mL of nanopure water • 10 mL ‘PI’ are prepared per assay: • 200 μL of 1 mg/ml L-alpha-Phosphatidylinositol (Liver Bovine, Avanti Polar Lipids Cat. No. 840042C MW=909.12) prepared in 3% OctylGlucoside ([…]) • 9.8 mL of ‘buffer’ • 10 mL ‘ATP’ are prepared per assay: • 6.7 μL of 3 mM stock of ATP giving a final concentration of 1 μM per well • 10 mL of ‘buffer’ • 2.5 mL of each PI3K construct are prepared per assay in ‘PI’ with the following final concentration: • 10 nM PI3K alfa BV-1075 • 25 nM beta BV-949 • 10 nM delta BV-1060 • 150 nM gamma BV-950 • 5 μL of ‘PI/PI3K’ are added per well. • 5 μl ‘ATP’ are added per well to start the reaction. • The plates are then incubated at room temperature for 60 minutes (alfa, beta, delta) or 120 minutes (gamma). • The reaction is terminated by the addition of 10 μL Kinase-Glo (Promega Cat. No. #6714). • The assay plates are read after 10 minutes in Synergy 2 reader (BioTek, Vermont USA) with an integration time of 100 milliseconds and sensitivity set to 191. • Output: The High control is around 60′000 counts and the Low control is 30′000 or lower • This luminescence assay gives a useful Z′ ratio between 0.4 and 0.7 The Z′ value is a universal measurement of the robustness of an assay. A Z′ between 0.5 and 1.0 is considered an excellent assay.
(§4) IC50 is determined by a four parameter curve fitting routine that comes aloneg with “excel fit”. A 4 Parameter logistic equation is used to calculate IC50 values (IDBS XLfit) of the percentage inhibition of each compound at 8 concentrations (usually 10, 3.0, 1.0, 0.3, 0.1, 0.030, 0.010 and 0.003 μM). Alternatively, IC50 values are calculated using idbsXLfit model 204, which is a 4 parameter logistic model.

[2] = target: T2, PI3K delta (Homo sapiens, UniProt O00329); assay: PI3K delta enzymatic assay (Kinase-Glo luminescence)
T2 construct: for the full-length p110-d subunit are generated and fused by overlapping PCR; p85(iSH2) fusion partner (same polypeptide; see partner chain) (N); Gly linker (N); His tag (C); made in house; host or cells: baculovirus; Tn5 (Trichoplusia ni) or TiniPro insect cells
Experimental: as §1, §2, §3
PI3Kδ BV-1060 p85(iSH2)-Gly Linker-p110d (Full-Length)-C-term His Tact
as §4

[3] = target: T3, PI3K gamma (Homo sapiens, UniProt P48736); assay: PI3K gamma enzymatic assay (Kinase-Glo luminescence)
T3 construct: His tag (C); made in house; host or cells: construct from Roger Williams lab (MRC LMB); baculovirus (pVL1393); Tn5 (Trichoplusia ni) or TiniPro insect cells
Experimental: as §1, §2, §3, §4

[4] = target: T4, PI3K beta (Homo sapiens, UniProt P42338); assay: PI3K beta enzymatic assay (Kinase-Glo luminescence)
T4 construct: for the full-length p110-b subunit are generated and fused by overlapping PCR; p85(iSH2) fusion partner (same polypeptide; see partner chain) (N); Gly linker (N); His tag (C); made in house; host or cells: baculovirus; Tn5 (Trichoplusia ni) or TiniPro insect cells
Experimental: as §1, §2, §3
PI3Kβ BV-949 p85(iSH2)-Gly linker-p110b (Full-Length)-C-Term His Tag
as §4

T4 sequence (P42338 with tags, fused parts or gaps limits assumed): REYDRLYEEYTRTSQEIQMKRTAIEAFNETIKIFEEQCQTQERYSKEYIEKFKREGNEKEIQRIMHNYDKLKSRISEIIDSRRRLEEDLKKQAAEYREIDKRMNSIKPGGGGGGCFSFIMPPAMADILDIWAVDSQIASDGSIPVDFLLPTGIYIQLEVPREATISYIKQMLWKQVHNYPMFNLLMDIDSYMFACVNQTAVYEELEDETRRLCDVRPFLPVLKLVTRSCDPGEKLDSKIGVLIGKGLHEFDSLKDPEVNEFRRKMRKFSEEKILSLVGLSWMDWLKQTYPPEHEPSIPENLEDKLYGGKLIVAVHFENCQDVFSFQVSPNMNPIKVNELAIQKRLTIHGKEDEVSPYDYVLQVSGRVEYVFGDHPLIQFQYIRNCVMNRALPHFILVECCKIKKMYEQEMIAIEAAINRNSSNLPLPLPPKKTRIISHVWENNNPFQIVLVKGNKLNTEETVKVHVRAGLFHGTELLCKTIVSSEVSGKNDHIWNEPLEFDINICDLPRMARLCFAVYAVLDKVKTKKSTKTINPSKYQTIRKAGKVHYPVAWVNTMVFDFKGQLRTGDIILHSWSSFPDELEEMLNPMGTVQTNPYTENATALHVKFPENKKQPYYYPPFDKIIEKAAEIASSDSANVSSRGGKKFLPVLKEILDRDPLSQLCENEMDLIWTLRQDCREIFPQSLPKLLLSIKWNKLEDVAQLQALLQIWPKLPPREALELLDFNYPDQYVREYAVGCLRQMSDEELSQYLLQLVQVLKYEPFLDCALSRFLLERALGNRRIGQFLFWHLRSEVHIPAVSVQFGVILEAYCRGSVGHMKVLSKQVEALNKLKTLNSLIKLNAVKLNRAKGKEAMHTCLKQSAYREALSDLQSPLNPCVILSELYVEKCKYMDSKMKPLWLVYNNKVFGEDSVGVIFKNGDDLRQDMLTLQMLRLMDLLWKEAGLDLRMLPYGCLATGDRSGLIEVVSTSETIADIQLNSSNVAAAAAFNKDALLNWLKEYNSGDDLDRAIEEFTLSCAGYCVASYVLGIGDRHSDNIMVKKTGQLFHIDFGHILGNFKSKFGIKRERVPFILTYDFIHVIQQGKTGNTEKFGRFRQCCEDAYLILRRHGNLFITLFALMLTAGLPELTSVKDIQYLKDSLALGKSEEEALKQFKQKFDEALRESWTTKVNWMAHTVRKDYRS
T3 sequence (P48736 144-1102 limits assumed): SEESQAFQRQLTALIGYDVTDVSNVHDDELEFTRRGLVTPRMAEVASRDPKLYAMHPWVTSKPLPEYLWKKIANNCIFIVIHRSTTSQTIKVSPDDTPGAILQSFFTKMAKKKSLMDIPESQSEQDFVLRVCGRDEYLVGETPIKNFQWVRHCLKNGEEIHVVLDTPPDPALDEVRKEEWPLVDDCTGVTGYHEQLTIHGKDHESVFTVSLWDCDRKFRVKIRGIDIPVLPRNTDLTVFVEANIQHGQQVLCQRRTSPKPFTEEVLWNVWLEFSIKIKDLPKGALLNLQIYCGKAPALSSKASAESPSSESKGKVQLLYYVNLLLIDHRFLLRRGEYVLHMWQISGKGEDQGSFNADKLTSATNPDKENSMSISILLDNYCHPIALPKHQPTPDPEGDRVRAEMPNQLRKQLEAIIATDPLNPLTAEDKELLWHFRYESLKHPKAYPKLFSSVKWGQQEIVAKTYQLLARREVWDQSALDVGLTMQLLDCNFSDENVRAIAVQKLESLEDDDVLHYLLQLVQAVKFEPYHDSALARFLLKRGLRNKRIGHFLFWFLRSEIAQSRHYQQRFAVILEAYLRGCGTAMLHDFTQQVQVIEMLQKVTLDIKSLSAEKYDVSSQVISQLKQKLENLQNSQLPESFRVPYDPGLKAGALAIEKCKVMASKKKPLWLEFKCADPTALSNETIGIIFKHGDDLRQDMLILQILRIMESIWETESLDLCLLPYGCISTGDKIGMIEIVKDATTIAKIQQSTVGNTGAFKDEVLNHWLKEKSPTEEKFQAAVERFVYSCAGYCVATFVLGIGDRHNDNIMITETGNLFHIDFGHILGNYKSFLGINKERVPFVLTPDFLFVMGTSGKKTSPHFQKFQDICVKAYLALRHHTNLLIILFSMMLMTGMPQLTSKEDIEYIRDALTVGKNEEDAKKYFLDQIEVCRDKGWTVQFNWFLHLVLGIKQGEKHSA
T2 sequence (O00329 with tags, fused parts or gaps limits assumed): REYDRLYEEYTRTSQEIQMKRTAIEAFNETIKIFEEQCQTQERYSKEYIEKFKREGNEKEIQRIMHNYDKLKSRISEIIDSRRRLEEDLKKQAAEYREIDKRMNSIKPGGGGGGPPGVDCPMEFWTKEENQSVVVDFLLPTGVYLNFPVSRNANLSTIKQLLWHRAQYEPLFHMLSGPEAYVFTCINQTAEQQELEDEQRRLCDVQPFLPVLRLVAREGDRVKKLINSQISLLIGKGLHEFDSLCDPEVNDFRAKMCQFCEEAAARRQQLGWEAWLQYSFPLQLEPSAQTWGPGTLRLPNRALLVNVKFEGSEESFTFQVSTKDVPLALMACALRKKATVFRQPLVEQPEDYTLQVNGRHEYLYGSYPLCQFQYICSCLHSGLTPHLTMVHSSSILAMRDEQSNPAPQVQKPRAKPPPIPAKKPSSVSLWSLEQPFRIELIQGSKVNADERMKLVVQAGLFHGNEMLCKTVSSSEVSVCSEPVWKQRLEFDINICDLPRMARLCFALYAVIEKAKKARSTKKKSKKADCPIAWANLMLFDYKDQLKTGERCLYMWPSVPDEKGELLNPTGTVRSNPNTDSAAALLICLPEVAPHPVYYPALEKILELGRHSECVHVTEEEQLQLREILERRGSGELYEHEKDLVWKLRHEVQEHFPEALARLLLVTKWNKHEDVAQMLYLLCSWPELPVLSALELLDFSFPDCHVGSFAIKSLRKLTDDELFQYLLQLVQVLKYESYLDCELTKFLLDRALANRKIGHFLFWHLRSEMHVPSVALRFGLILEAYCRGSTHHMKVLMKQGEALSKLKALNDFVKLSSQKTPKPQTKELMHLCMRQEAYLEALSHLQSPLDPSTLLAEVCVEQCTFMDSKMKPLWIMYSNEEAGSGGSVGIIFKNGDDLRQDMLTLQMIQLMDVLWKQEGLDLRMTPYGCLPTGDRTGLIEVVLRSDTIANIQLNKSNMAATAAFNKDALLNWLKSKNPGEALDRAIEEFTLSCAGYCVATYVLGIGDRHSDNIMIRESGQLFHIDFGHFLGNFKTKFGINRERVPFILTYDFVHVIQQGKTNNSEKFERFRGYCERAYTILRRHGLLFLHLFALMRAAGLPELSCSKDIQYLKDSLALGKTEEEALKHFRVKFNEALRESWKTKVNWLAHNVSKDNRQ
T1 sequence (P42336 with tags, fused parts or gaps limits assumed): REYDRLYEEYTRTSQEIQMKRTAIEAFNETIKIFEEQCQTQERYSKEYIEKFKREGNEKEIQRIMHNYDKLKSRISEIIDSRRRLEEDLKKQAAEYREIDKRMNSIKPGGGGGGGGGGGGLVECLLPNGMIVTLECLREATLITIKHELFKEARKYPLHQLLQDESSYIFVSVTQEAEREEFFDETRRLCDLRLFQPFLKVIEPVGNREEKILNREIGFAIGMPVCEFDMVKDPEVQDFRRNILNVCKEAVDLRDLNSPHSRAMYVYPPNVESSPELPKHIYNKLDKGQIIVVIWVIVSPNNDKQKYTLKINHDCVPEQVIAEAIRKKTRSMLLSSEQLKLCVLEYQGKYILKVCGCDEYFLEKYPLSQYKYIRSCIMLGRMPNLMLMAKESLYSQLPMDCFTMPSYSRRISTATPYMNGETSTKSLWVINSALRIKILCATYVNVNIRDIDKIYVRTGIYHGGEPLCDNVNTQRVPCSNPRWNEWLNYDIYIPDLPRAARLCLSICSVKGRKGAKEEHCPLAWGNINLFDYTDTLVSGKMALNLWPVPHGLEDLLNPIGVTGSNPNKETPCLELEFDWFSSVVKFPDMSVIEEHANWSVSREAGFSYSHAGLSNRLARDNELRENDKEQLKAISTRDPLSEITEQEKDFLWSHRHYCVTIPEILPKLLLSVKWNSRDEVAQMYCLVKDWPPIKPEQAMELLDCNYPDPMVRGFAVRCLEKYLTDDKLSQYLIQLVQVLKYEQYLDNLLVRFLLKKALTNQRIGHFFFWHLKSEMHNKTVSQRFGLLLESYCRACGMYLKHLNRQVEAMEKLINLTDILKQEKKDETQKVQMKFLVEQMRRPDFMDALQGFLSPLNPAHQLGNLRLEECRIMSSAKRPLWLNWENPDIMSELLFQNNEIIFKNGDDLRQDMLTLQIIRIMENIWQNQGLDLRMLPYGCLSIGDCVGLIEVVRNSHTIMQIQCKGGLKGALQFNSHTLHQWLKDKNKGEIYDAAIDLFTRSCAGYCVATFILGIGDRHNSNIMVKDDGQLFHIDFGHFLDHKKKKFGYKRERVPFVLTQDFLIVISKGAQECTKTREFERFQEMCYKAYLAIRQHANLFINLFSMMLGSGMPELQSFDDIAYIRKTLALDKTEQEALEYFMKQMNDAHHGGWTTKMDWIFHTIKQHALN

## COc1cc(-c2ccc3nc(C)c(-c4cnc(N)c(C(F)(F)F)c4)n3n2)ccc1OCCNC(=O)Nc1cc(OC)c(OC)c(OC)c1 [Example 61]
[1]
  IC50: 242 nM
[2]
  IC50: 2710 nM
[3]
  IC50: 194 nM
[4]
  IC50: > 9100 nM

## COc1cc(-c2ccc3nc(C)c(-c4cnc(N)c(C(F)(F)F)c4)n3n2)ccc1OCCN [Example 24, 5-{6-[4-(2-Amino-ethoxy)-3-methoxy-phenyl]-2-methyl-imidazo[1,2-b]pyridazin-3-yl}-3-trifluoromethyl-pyridin-2-ylamine]
[1]
  IC50: 39 nM
[2]
  IC50: 52 nM
[3]
  IC50: 211 nM
[4]
  IC50: 51 nM

## COc1cc(-c2ccc3nc(C)c(-c4cnc(N)c(C(F)(F)F)c4)n3n2)ccc1OCCNC(=O)OC(C)C [Example 79]
[1]
  IC50: 99 nM
[2]
  IC50: 2040 nM
[3]
  IC50: 648 nM
[4]
  IC50: > 9100 nM

## COc1cc(-c2ccc3nc(C)c(-c4cnc(N)c(C(F)(F)F)c4)n3n2)ccc1OCCNC(=O)c1cc(OC)c(OC)c(OC)c1 [Example 41]
[1]
  IC50: 294 nM
[2]
  IC50: > 9100 nM
[3]
  IC50: 933 nM
[4]
  IC50: > 9100 nM

## COc1ccc(S(=O)(=O)n2ccc(-c3c(C)nc4ccc(-c5ccc(OC)c(OC)c5)nn34)n2)cc1 [Example 22, 6-(3,4-Dimethoxy-phenyl)-3-[1-(4-methoxy-benzenesulfonyl)-1H-pyrazol-3-yl]-2-methyl-imidazo[1,2-b]pyridazine]
[1]
  IC50: 781 nM
[2]
  IC50: 889 nM
[3]
  IC50: 1500 nM
[4]
  IC50: > 9100 nM

## COc1ccc(-c2ccc3nc(C)c(-c4cnc(N)c(C(F)(F)F)c4)n3n2)cc1OC [Example 15, 5-[6-(3,4-Dimethoxy-phenyl)-2-methyl-imidazo[1,2-b]pyridazin-3-yl]-3-trifluoromethyl-pyridin-2-ylamine]
[1]
  IC50: 5.9 nM
[2]
  IC50: 69 nM
[3]
  IC50: 157 nM
[4]
  IC50: 150 nM

## COc1cc(-c2ccc3nc(C)c(-c4ccc(S(C)(=O)=O)cc4)n3n2)ccc1OC1CCNCC1 [Example 101, 3-(4-Methanesulfonyl-phenyl)-6-[3-methoxy-4-(piperidin-4-yloxy)-phenyl]-2-methyl-imidazo[1,2-b]pyridazine]
[1]
  IC50: 1040 nM
[2]
  IC50: 1180 nM
[3]
  IC50: > 9100 nM
[4]
  IC50: > 9100 nM

## COc1cc(-c2ccc3nc(C)c(-c4cnc(N)c(C(F)(F)F)c4)n3n2)ccc1OCCNC(=O)c1ccc(N2CCOCC2)cc1 [Example 94, N-(2-{4-[3-(6-Amino-5-trifluoromethyl-pyridin-3-yl)-2-methyl-imidazo[1,2-b]pyridazin-6-yl]-2-methoxy-phenoxy}-ethyl)-4-morpholin-4-yl-benzamide]
[1]
  IC50: 367 nM
[2]
  IC50: 6780 nM
[3]
  IC50: > 9100 nM
[4]
  IC50: > 9100 nM

## CCS(=O)(=O)c1ccc(-c2c(C)nc3ccc(-c4ccc(OCCOCCOCCOC)c(OC)c4)nn23)cc1 [Example 91, 3-(4-Ethanesulfonyl-phenyl)-6-(3-methoxy-4-{2-[2-(2-methoxy-ethoxy)-ethoxy]-ethoxy}-phenyl)-2-methyl-imidazo[1,2-b]pyridazine]
[1]
  IC50: 4100 nM
[2]
  IC50: 3400 nM
[3]
  IC50: > 9100 nM
[4]
  IC50: > 9100 nM

## CCS(=O)(=O)c1ccc(-c2c(C)nc3ccc(-c4ccc(OC5CCNCC5)c(OC)c4)nn23)cc1 [Example 102, 3-(4-Ethanesulfonyl-phenyl)-6-[3-methoxy-4-(piperidin-4-yloxy)-phenyl]-2-methyl-imidazo[1,2-b]pyridazine]
[1]
  IC50: 2990 nM
[2]
  IC50: 2560 nM
[3]
  IC50: > 9100 nM
[4]
  IC50: > 9100 nM

## COCCOCCOCCOc1ccc(-c2ccc3nc(C)c(-c4cnc(N)c(C(F)(F)F)c4)n3n2)cc1OC [Example 84, 5-[6-(3-Methoxy-4-{2-[2-(2-methoxy-ethoxy)-ethoxy]-ethoxy}-phenyl)-2-methyl-imidazo[1,2-b]pyridazin-3-yl]-3-trifluoromethyl-pyridin-2-ylamine]
[1]
  IC50: 40 nM
[2]
  IC50: 174 nM
[3]
  IC50: 65 nM
[4]
  IC50: > 9100 nM

## Cc1nc2ccc(-c3ccc4c(c3)OCO4)nn2c1-c1cnc2[nH]ccc2c1 [Example 109, 6-Benzo[1,3]dioxol-5-yl-2-methyl-3-(1H-pyrrolo[2,3-b]pyridin-5-yl)-imidazo[1,2-b]pyridazine]
[1]
  IC50: 5910 nM
[2]
  IC50: 3940 nM
[3]
  IC50: > 9100 nM
[4]
  IC50: > 9100 nM

## COc1ccc(-c2ccc3nc(C)c(-c4ccnc(-n5ccnc5)n4)n3n2)cc1OC [Example 83, 6-(3,4-Dimethoxy-phenyl)-3-(2-imidazol-1-yl-pyrimidin-4-yl)-2-methyl-imidazo[1,2-b]pyridazine]
[1]
  IC50: 276 nM
[2]
  IC50: 397 nM
[3]
  IC50: 1160 nM
[4]
  IC50: > 9100 nM

## COc1cc(-c2ccc3nc(C)c(-c4cnc(N)c(C(F)(F)F)c4)n3n2)ccc1OCCNC(=O)C(C)C [Example 81]
[1]
  IC50: 30 nM
[2]
  IC50: 372 nM
[3]
  IC50: 503 nM
[4]
  IC50: > 9100 nM

## COc1cc(-c2ccc3nc(C)c(-c4ccc(S(C)(=O)=O)cc4)n3n2)ccc1OC1CCN(C(=O)OC(C)(C)C)CC1 [Example 98, 4-{4-[3-(4-Methanesulfonyl-phenyl)-2-methyl-imidazo[1,2-b]pyridazin-6-yl]-2-methoxy-phenoxy}-piperidine-1-carboxylic acid tert-butyl ester]
[1]
  IC50: 9090 nM
[2]
  IC50: > 9100 nM
[3]
  IC50: > 9100 nM
[4]
  IC50: > 9100 nM

## COc1cc(-c2ccc3nc(C)c(-c4cnc(N)c(C(F)(F)F)c4)n3n2)ccc1OCCNC(=O)c1cccc(C#N)c1 [Example 27]
[1]
  IC50: 456 nM
[2]
  IC50: > 9100 nM
[3]
  IC50: 2280 nM
[4]
  IC50: > 9100 nM

## COc1ccc(-c2ccc3nc(C)c(-c4ccc(N5CCOCC5)nc4)n3n2)cc1OC [Example 5]
[1]
  IC50: 111 nM
[2]
  IC50: 1090 nM
[3]
  IC50: 613 nM
[4]
  IC50: 1570 nM

## COc1ccc(-c2ccc3nc(C)c(-c4ccc(F)nc4)n3n2)cc1OC [Example 1, 6-(3,4-Dimethoxy-phenyl)-3-(6-fluoro-pyridin-3-yl)-2-methyl-imidazo[1,2-b]pyridazine]
[1]
  IC50: 206 nM
[2]
  IC50: 1350 nM
[3]
  IC50: 241 nM
[4]
  IC50: 1680 nM

## COc1cc(-c2ccc3nc(C)c(-c4cnc(N)c(C(F)(F)F)c4)n3n2)ccc1OCCCNC(=O)C(C)C [Example 82]
[1]
  IC50: 19 nM
[2]
  IC50: 164 nM
[3]
  IC50: 87 nM
[4]
  IC50: 4010 nM

## COc1cc(-c2ccc3nc(C)c(-c4cnc(N)c(C(F)(F)F)c4)n3n2)ccc1OCCNC(=O)c1ccc(OC)c(OC)c1OC [Example 95, N-(2-{4-[3-(6-Amino-5-trifluoromethyl-pyridin-3-yl)-2-methyl-imidazo[1,2-b]pyridazin-6-yl]-2-methoxy-phenoxy}-ethyl)-2,3,4-trimethoxy-benzamide]
[1]
  IC50: 245 nM
[2]
  IC50: 5370 nM
[3]
  IC50: 4740 nM
[4]
  IC50: > 9100 nM

Reference: patent publication US20100305113A1, “Substituted Imidazopyridazines as Lipid Kinase Inhibitors” (priority 2007, published 2010)
